From US20120100990A1, “4 -AMINOPICOLINATES AND THEIR USE AS HERBICIDES” (SYNGENTA CROP PROTECTION LLC, priority 2009, published 2012)

Key:
Type in all cases: in vivo
[1] = system: Ipomea hederaceae (IPOHE); assay: Post-emergence biological efficacy, glasshouse pot test; conditions: Ipomoea hederacea, 312 h, 1,000 g/ha, evaluated after 13 days, 100=total damage, 0=no damage, read-out: Percentage damage caused to weed species, post-emergence, IPOHE
Experimental: (§1) Seeds of Alopecurus myosuroides (ALOMY), Setaria faberi (SETFA), Echinochloa crus-galli (ECHCG), Solanum nigrum (SOLNI), Amaranthus retroflexus (AMARE) and Ipomea hederaceae (IPOHE) were sown in standard soil in pots. After cultivation for 8 days under controlled conditions in a glasshouse (at 24/16° C., day/night; 14 hours light; 65% humidity), the plants were sprayed with an aqueous spray solution derived from the formulation of the technical active ingredient in acetone/water (50:50) solution containing 0.5% Tween 20 (polyoxyethylene sorbitan monolaurate, CAS RN 9005-64-5) to give a final dose of 1000 or 250 g/ha of test compound. The test plants were then grown on under controlled conditions in a glasshouse (at 24/16° C., day/night; 14 hours light; 65% humidity) and watered twice daily. After 13 days the test was evaluated (100=total damage to plant; 0=no damage to plant).

[2] = system: Alopecurus myosuroides (ALOMY); assay: as above; conditions: 312 h, 1,000 g/ha, evaluated after 13 days, 100=total damage, 0=no damage, read-out: Percentage damage caused to weed species, post-emergence, ALOMY
Experimental: as §1

[3] = system: Amaranthus retroflexus (AMARE); assay: as above; conditions: 312 h, 1,000 g/ha, evaluated after 13 days, 100=total damage, 0=no damage, read-out: Percentage damage caused to weed species, post-emergence, AMARE
Experimental: as §1

Solanum nigrum (SOLNI) [4] = assay: as above; conditions: 312 h, 1,000 g/ha, evaluated after 13 days, 100=total damage, 0=no damage, read-out: Percentage damage caused to weed species, post-emergence, SOLNI
Experimental: as §1

Setaria faberi (SETFA) [5] = assay: as above; conditions: 312 h, 1,000 g/ha, evaluated after 13 days, 100=total damage, 0=no damage, read-out: Percentage damage caused to weed species, post-emergence, SETFA
Experimental: as §1

[6] = system: Echinochloa crus-galli (ECHCG); assay: as above; conditions: 312 h, 1,000 g/ha, evaluated after 13 days, 100=total damage, 0=no damage, read-out: Percentage damage caused to weed species, post-emergence, ECHCG
Experimental: as §1

[7] = system: Ipomea hederaceae (IPOHE); assay: Pre-emergence biological efficacy, glasshouse pot test; conditions: Ipomoea hederacea, 312 h, 1,000 g/ha, evaluated after 13 days, 100=total damage, 0=no damage, read-out: Percentage damage caused to weed species, pre-emergence, IPOHE
Experimental: (§2) Seeds of Alopecurus myosuroides (ALOMY), Setaria faberi (SETFA), Echinochloa crus-galli (ECHCG), Solanum nigrum (SOLNI), Amaranthus retroflexus (AMARE) and Ipomea hederaceae (IPOHE) were sown in standard soil in pots. After cultivation for one day under controlled conditions in a glasshouse (at 24/16° C., day/night; 14 hours light; 65% humidity), the plants were sprayed with an aqueous spray solution derived from the formulation of the technical active ingredient in acetone/water (50:50) solution containing 0.5% Tween 20 (polyoxyethylene sorbitan monolaurate, CAS RN 9005-64-5) to give a final dose of 1000 or 250 g/ha of test compound. The test plants were then grown under controlled conditions in the glasshouse (at 24/16° C., day/night; 14 hours light; 65% humidity) and watered twice daily. After 13 days the test was evaluated (100=total damage to plant; 0=no damage to plant).

[8] = system: Alopecurus myosuroides (ALOMY); assay: as above; conditions: 312 h, 1,000 g/ha, evaluated after 13 days, 100=total damage, 0=no damage, read-out: Percentage damage caused to weed species, pre-emergence, ALOMY
Experimental: as §2

[9] = system: Amaranthus retroflexus (AMARE); assay: as above; conditions: 312 h, 1,000 g/ha, evaluated after 13 days, 100=total damage, 0=no damage, read-out: Percentage damage caused to weed species, pre-emergence, AMARE
Experimental: as §2

Solanum nigrum (SOLNI) [10] = assay: as above; conditions: 312 h, 1,000 g/ha, evaluated after 13 days, 100=total damage, 0=no damage, read-out: Percentage damage caused to weed species, pre-emergence, SOLNI
Experimental: as §2

Setaria faberi (SETFA) [11] = assay: as above; conditions: 312 h, 1,000 g/ha, evaluated after 13 days, 100=total damage, 0=no damage, read-out: Percentage damage caused to weed species, pre-emergence, SETFA
Experimental: as §2

[12] = system: Echinochloa crus-galli (ECHCG); assay: as above; conditions: 312 h, 1,000 g/ha, evaluated after 13 days, 100=total damage, 0=no damage, read-out: Percentage damage caused to weed species, pre-emergence, ECHCG
Experimental: as §2

| SMILES | pest or weed control at 1000 g/ha [1] | pest or weed control at 1000 g/ha [2] | pest or weed control at 1000 g/ha [3] | pest or weed control at 1000 g/ha (Solanum nigrum (SOLNI) [4]) | pest or weed control at 1000 g/ha (Setaria faberi (SETFA) [5]) | pest or weed control at 1000 g/ha [6] | pest or weed control at 1000 g/ha [7] | pest or weed control at 1000 g/ha [8] | pest or weed control at 1000 g/ha [9] | pest or weed control at 1000 g/ha (Solanum nigrum (SOLNI) [10]) | pest or weed control at 1000 g/ha (Setaria faberi (SETFA) [11]) | pest or weed control at 1000 g/ha [12] |
| --- | --- | --- | --- | --- | --- | --- | --- | --- | --- | --- | --- | --- |
| C=Cc1c(C(=O)OC)nc(Cl)c(F)c1NCc1ccccc1[N+](=O)[O-] [Compound 15-27, 6-Chloro-3-ethenyl-5-fluoro-4-[(2-nitrophenylmeth-yl)amino]-pyridine-2-carboxylic acid methyl ester] | 90% | 70% | 100% | 100% | 90% | 70% | 90% | 90% | 100% | 100% | 90% | 90% |
| COC(=O)c1nc(Cl)c(F)c(NCc2ccccc2[N+](=O)[O-])c1Br [Compound 15-29, 3-bromo-6-chloro-5-fluoro-4-[(2-nitrophenyl-methyl)-amino]-pyridine-2-carboxylic acid methyl ester] | 70% | 50% | 100% | 100% | 80% | 50% | 100% | 90% | 90% | 90% | 40% | 70% |
| COC(=O)c1nc(Cl)c(F)c(NCc2ccccc2[N+](=O)[O-])c1C [Compound 15-31, 6-Chloro-5-fluoro-3-methyl-4-[(2-nitrophenyl-methyl)-amino]-pyridine-2-carboxylic acid methyl ester] | 70% | 20% | 100% | 100% | 80% | 50% | 70% | 20% | 100% | 90% | 20% | 20% |
| C=Cc1c(C(=O)OC)nc(Cl)c(Cl)c1NCc1ccccc1[N+](=O)[O-] [Compound 15-39, 5,6-Dichloro-3-ethenyl-4-[(2-nitrophenylmeth-yl)-amino]-pyridine-2-carboxylic acid methyl ester] | 90% | 60% | 100% | 100% | 80% | 60% | 90% | 30% | 100% | 100% | 40% | 80% |
| COC(=O)c1nc(Cl)c(Cl)c(NCc2ccccc2[N+](=O)[O-])c1Br [Compound 15-41, 3-bromo-5,6-dichloro-4-[(2-nitrophenyl-methyl)-amino]-pyridine-2-carboxylic acid methyl ester] | 80% | 10% | 100% | 100% | 70% | 0% | 100% | 20% | 100% | 80% | 30% | 40% |
